In PubChem BioAssay (NCI):
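Five concentrations, 48 hours, 96-well plates. Definition used: TGI = concentration required for complete inhibition of growth.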

How the values were obtained:
Assay in all cases: NCI anticancer screen, dose series, 48 h
SK-MEL-5 melanoma = system: SK-MEL-5 melanoma
OVCAR-3 ovarian = system: OVCAR-3 ovarian
SF-539 CNS = system: SF-539 CNS
MDA-MB-435 = system: MDA-MB-435
HL-60(TB) leukemia = system: HL-60(TB) leukemia
BT-549 breast = system: BT-549 breast
SF-268 CNS = system: SF-268 CNS
A549 NSCLC = system: A549 NSCLC
M14 melanoma = system: M14 melanoma
UO-31 renal = system: UO-31 renal
RPMI-8226 leukemia = system: RPMI-8226 leukemia
SK-OV-3 ovarian = system: SK-OV-3 ovarian
SK-MEL-2 melanoma = system: SK-MEL-2 melanoma
COLO 205 colon = system: COLO 205 colon
CAKI-1 renal = system: CAKI-1 renal
IGROV1 ovarian = system: IGROV1 ovarian
SNB-75 CNS = system: SNB-75 CNS
NCI/ADR-RES ovarian = system: NCI/ADR-RES ovarian
MALME-3M melanoma = system: MALME-3M melanoma
U251 CNS = system: U251 CNS
DU-145 prostate = system: DU-145 prostate
NCI-H522 lung = system: NCI-H522 lung
A498 renal = system: A498 renal
SW-620 colon = system: SW-620 colon
MDA-N = system: MDA-N
HOP-62 NSCLC = system: HOP-62 NSCLC
PC-3 prostate = system: PC-3 prostate
NCI-H460 lung = system: NCI-H460 lung
SNB-19 CNS = system: SNB-19 CNS
OVCAR-5 ovarian = system: OVCAR-5 ovarian
HCC-2998 colon = system: HCC-2998 colon
MCF7 breast = system: MCF7 breast
OVCAR-8 ovarian = system: OVCAR-8 ovarian
CCRF-CEM leukemia = system: CCRF-CEM leukemia
HS 578T breast = system: HS 578T breast
MOLT-4 leukemia = system: MOLT-4 leukemia
MDA-MB-231 breast = system: MDA-MB-231 breast
T-47D breast = system: T-47D breast
HT29 colon = system: HT29 colon
HCT-116 colon = system: HCT-116 colon
EKVX NSCLC = system: EKVX NSCLC
SN12C renal = system: SN12C renal
UACC-62 melanoma = system: UACC-62 melanoma
K-562 leukemia = system: K-562 leukemia
SR leukemia = system: SR leukemia
SK-MEL-28 melanoma = system: SK-MEL-28 melanoma
TK-10 renal = system: TK-10 renal
NCI-H23 lung = system: NCI-H23 lung
HCT-15 colon = system: HCT-15 colon
HOP-92 NSCLC = system: HOP-92 NSCLC
LOX IMVI melanoma = system: LOX IMVI melanoma
SF-295 CNS = system: SF-295 CNS
KM12 colon = system: KM12 colon
786-0 renal = system: 786-0 renal
ACHN renal = system: ACHN renal

With `CC(O)C(O)C(O)C(/C=N\Nc1ccccc1)=N/Nc1ccccc1` (stereo not given) the TGI (SK-MEL-5 melanoma) was 28.5 µM, the TGI (OVCAR-3 ovarian) was 40.4 µM and the TGI (SF-539 CNS) was 28.3 µM. The TGI (MDA-MB-435) was 26.7 µM, the TGI (HL-60(TB) leukemia) was 45.3 µM and the TGI (BT-549 breast) was 29.4 µM. The TGI (SF-268 CNS) was 24.5 µM, the TGI (A549 NSCLC) was 28.7 µM and the TGI (M14 melanoma) was 27.9 µM. It also gave a TGI (UO-31 renal) of 25.7 µM, a TGI (RPMI-8226 leukemia) of 57.1 µM and a TGI (SK-OV-3 ovarian) of 29.7 µM. For the same molecule, the TGI (SK-MEL-2 melanoma) was 21.5 µM, the TGI (COLO 205 colon) was 27.4 µM and the TGI (CAKI-1 renal) was 11.1 µM. The TGI (IGROV1 ovarian) was 21.4 µM, the TGI (SNB-75 CNS) was 38.4 µM and the TGI (NCI/ADR-RES ovarian) was 40.2 µM. For the same molecule, the TGI (MALME-3M melanoma) was 43.5 µM, the TGI (U251 CNS) was 27.2 µM and the TGI (DU-145 prostate) was 35.7 µM. It also gave a TGI (NCI-H522 lung) of 20.9 µM, a TGI (A498 renal) of 22.6 µM and a TGI (SW-620 colon) of 25.8 µM. The TGI (MDA-N) was 25.1 µM, the TGI (HOP-62 NSCLC) was 30.3 µM and the TGI (PC-3 prostate) was 49.6 µM. For the same molecule, the TGI (NCI-H460 lung) was 24.6 µM, the TGI (SNB-19 CNS) was 29.1 µM and the TGI (OVCAR-5 ovarian) was 27.5 µM. It also gave a TGI (HCC-2998 colon) of 23.3 µM, a TGI (MCF7 breast) of 24.1 µM and a TGI (OVCAR-8 ovarian) of 38.1 µM. For the same molecule, the TGI (CCRF-CEM leukemia) was 52.3 µM, the TGI (HS 578T breast) was 24.7 µM and the TGI (MOLT-4 leukemia) was 69.5 µM. It also gave a TGI (MDA-MB-231 breast) of 27.3 µM, a TGI (T-47D breast) of 45.9 µM and a TGI (HT29 colon) of 30.8 µM. The TGI (HCT-116 colon) was 30.5 µM, the TGI (EKVX NSCLC) was 27.6 µM and the TGI (SN12C renal) was 34.5 µM. The TGI (UACC-62 melanoma) was 22.2 µM, the TGI (K-562 leukemia) was 40.8 µM and the TGI (SR leukemia) was 41.9 µM. The TGI (SK-MEL-28 melanoma) was 30.2 µM, the TGI (TK-10 renal) was 35.4 µM and the TGI (NCI-H23 lung) was 24.1 µM. It also gave a TGI (HCT-15 colon) of 27 µM, a TGI (HOP-92 NSCLC) of 36 µM and a TGI (LOX IMVI melanoma) of 18.1 µM. It also gave a TGI (SF-295 CNS) of 25.7 µM, a TGI (KM12 colon) of 21.6 µM and a TGI (786-0 renal) of 29.8 µM. The TGI (ACHN renal) was 25.3 µM.
